{"source": "patent US20130210901A1", "about": "“METHOD OF TREATING NEURODEGENERATIVE DISEASES” (Yissum Research Development Company of the Hebrew …, priority 2010, published 2013)", "key": {"hnRNP A/B": {"system": "hnRNP A/B", "assay": "hnRNP A/B expression in primary neuronal cultures incubated with cholinergic agonist", "assay_type": "cell-based, mouse", "conditions": "10 μM, 48 hours", "procedure": "Primary mixed cortical cultures: Primary mouse cultures of neurons and glia were produced from E16 embryos. Pregnant mice were anesthetized with isoflurane and sacrificed by cervical dislocation. The uterus was removed and placed on ice. After 5 minutes the heads were dissected under binocular and cortices were removed, placed in cold DMEM, and triturated with a scalpel and up and down pippeting. The medium was replaced with neurobasal medium supplemented with 1:50 B27, 2 mM L-Glutamine (Invitrogen, Grand Island, N.Y.), 50 U penicillin and 50 μg/ml streptomycin (Biological Industries, Beit-haemek, Israel), cells were counted and plated in 12 or 24-well plated pre-treated with 10 μg/ml poly-lysine (Sigma, St. Louis). For confocal microscopy cells were plated on glass cover slips similarly treated.\nImmunohistochemistry and immunofluorescence: Paraffin slides were rehydrated by washing in xylene and serial dilutions of ethanol in water. Heat-induced antigen retrieval involved boiling slides in 10 mM pH 6 citrate buffer for 10 minutes. Hydrogen peroxide methanol quench was performed for slides later developed with 3,3′-Diaminobenzidine tetrahydrochloride (DAB). […]"}, "miRNA-211": {"system": "miRNA-211", "assay": "miRNA expression in temporal cortex 48 hours after muscarinic agonist injection (RT-PCR)", "assay_type": "in vivo, mouse", "conditions": "48 hours after injections", "procedure": "(§1) β-actin and GAPDH were used as reference transcripts. Annealing temperature was 60° C. for all primers. Serial dilution of samples served to evaluate primers efficiency and the appropriate cDNA concentration that yields linear changes. -RT controls verified lack of genomic DNA. miRNA quantification using The TaqMan miRNA Assays (Applied Biosystems) was conducted in two-step RT-PCR kit according to the manufacturer's instructions."}, "miRNA-132": {"system": "miRNA-132", "assay": "miRNA expression in temporal cortex 48 hours after muscarinic agonist injection (RT-PCR)", "assay_type": "in vivo, mouse", "conditions": "48 hours after injections", "procedure": "as §1"}, "miR-211": {"system": "miR-211", "assay": "Antisense blockage of miR-211 in cultured N9 cells, hnRNP A/B levels", "assay_type": "cell-based"}}, "note": "Where two headings read alike, the source gives them in different places.", "data": [{"compound": "C[N+](C)(C)CCOC(N)=O", "note": "[carbachol]", "values": [{"measurement": "expression of hnRNP A/B", "setting": "hnRNP A/B", "value": "increased"}]}, {"compound": "CC[C@@H]1C(=O)OC[C@@H]1Cc1cncn1C", "note": "[muscarinic agonist, pilocarpine]", "values": [{"measurement": "levels of miRNA-211", "setting": "miRNA-211", "value": "reduced"}, {"measurement": "levels of miRNA-132", "setting": "miRNA-132", "value": "increased"}]}, {"compound": "Antisense oligonucleotides to miR-211: locked nucleic acid oligonucleotide complementary to miR-211; miR211 antagonist e.g. SEQ ID NO: 87 (antisense AGGCGAAGGATGACAAAGGGAA; locked nucleic acid oligonucleotide, pattern not given here)", "values": [{"measurement": "hnRNP A/B levels", "setting": "miR-211", "value": "increased"}, {"measurement": "hnRNP A/B levels", "setting": "miR-211; listed as locked nucleic acid complementary oligonucleotide", "value": "increases"}]}]}
